# Reference: article PMC10762035, “Molecular basis of human trace amine-associated receptor 1 activation” (Nature Communications, 2024)
# Changes are numbered by the printed parent chain. “And” between values parts separate entries of the source, which are not always exact repeats. Equal values may be shown once.
# Assays:
# Format in all cases: cell-based
# [1] = molecular target: T1, hTA1 C5S (Homo sapiens, UniProt Q96RJ0, C5S); experiment: GloSensor cAMP accumulation assay, C5S mutant; settings: for C5S - Normalized Luminescence Counts (N=2): log[Compound], single wells
# T1 construct: expressed in transfected cells; host or cells: HEK293T
# T1 sequence (Q96RJ0 1-339 C5S): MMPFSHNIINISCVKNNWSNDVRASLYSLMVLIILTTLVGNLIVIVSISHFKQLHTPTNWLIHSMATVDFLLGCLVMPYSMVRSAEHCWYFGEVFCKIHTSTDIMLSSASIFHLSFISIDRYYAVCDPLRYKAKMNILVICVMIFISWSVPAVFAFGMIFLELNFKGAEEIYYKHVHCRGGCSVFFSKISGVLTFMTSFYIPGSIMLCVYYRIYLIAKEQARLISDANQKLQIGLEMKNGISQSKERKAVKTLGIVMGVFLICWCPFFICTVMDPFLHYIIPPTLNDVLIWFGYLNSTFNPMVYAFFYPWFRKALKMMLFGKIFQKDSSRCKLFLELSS
# [2] = molecular target: T2, hTA1 C13S (Homo sapiens, UniProt Q96RJ0, C13S); experiment: GloSensor cAMP accumulation assay, C13S mutant; settings: for C13S - Normalized Luminescence Counts (N=2): log[Compound], single wells
# T2 construct: expressed in transfected cells; host or cells: HEK293T
# T2 sequence (Q96RJ0 1-339 C13S): T1 sequence (Q96RJ0 1-339 C5S) with S5C, C13S
# [3] = molecular target: T3, hTA1 C178S (Homo sapiens, UniProt Q96RJ0, C178S); experiment: GloSensor cAMP accumulation assay, C178S mutant; settings: for C178S - Normalized Luminescence Counts (N=2): log[Compound], single replicates
# T3 construct: expressed in transfected cells; host or cells: HEK293T
# T3 sequence (Q96RJ0 1-339 C178S): T1 sequence (Q96RJ0 1-339 C5S) with S5C, C178S
# [4] = molecular target: T4, hTA1 W264F (Homo sapiens, UniProt Q96RJ0, W264F); experiment: GloSensor cAMP accumulation assay, W264F mutant;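 note: cells transiently transfected with receptor plus GloSensor, luminescence read 30 min after agonist addition at room temperature, concentration-response curves fitted by log(agonist) vs response regression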
# T4 construct: expressed in transfected cells; host or cells: HEK293T
# T4 sequence (Q96RJ0 1-339 W264F): T1 sequence (Q96RJ0 1-339 C5S) with S5C, W264F
# [5] = molecular target: T5, hTA1 V184P (Homo sapiens, UniProt Q96RJ0, V184P); experiment: GloSensor cAMP accumulation assay, V184P mutant; settings: for cAMP accumulation response, single replicate values (source data, Supplementary Figure 5): hTA1 V184P (N=2), log[Compound]
# T5 construct: expressed in transfected cells; host or cells: HEK293T
# T5 sequence (Q96RJ0 1-339 V184P): T1 sequence (Q96RJ0 1-339 C5S) with S5C, V184P
# [6] = C178S, each row one experiment (N=2), 3 replicates
structure (smiles),measurement,setting,value
"NCCc1ccc(Oc2ccc(O)cc2)c(I)c1 [T1AM, 3-iodothyronamine]",Span ± SEM (Emax normalized to β-PEA),"[1]; C5S, n=2",81.19 ± 8.03
same,pEC50 ± SEM,"[1]; C5S, n=2",5.95 ± 0.04
same,EC50,"[1]; C5S, n=2, read-out: EC50",1110 nM
same,"pEC50 values, Mean","[1]; hTA1 C5S, mean of 3 replicates, one line per independent experiment",6.184 and 5.721
same,"Emax values, Mean","[1]; hTA1 C5S, β-PEA = 100, mean of 3 replicates, one line per independent experiment",73.1551 and 89.2227
same,C5S - Normalized Luminescence Counts (N=2),[1]; M = -5,66.8501 and 72.156 and 68.5661 and 75.0127 and 63.7584 and 82.7458
same,C5S - Normalized Luminescence Counts (N=2),[1]; M = -5.522,58.0446 and 60.9798 and 52.4226 and 59.2704 and 49.2589 and 55.9562
same,ΔpEC50 values (each mutant value - WT average),[2]; C13S,-0.156 and -0.1145
same,Emax values,"[2]; C13S, Mean of fit per experiment",53.0882 and 64.9586
same,Span ± SEM (Emax normalized to β-PEA),"[2]; C13S, n=2",59.02 ± 5.94
same,pEC50 ± SEM,"[2]; C13S, n=2",5.99 ± 0.05
same,EC50,"[2]; C13S, n=2, read-out: EC50",1010 nM
same,"pEC50 values, Mean","[2]; hTA1 C13S, mean of 3 replicates, one line per independent experiment",5.973 and 6.015
same,C13S - Normalized Luminescence Counts (N=2),[2]; M = -5,54.3554 and 36.9604 and 53.1374 and 65.6185 and 52.4268 and 54.7653
same,C13S - Normalized Luminescence Counts (N=2),[2]; M = -5.522,42.3654 and 30.6418 and 38.8635 and 53.123 and 40.9666 and 58.8174
same,C13S - Normalized Luminescence Counts (N=2),[2]; M = -6,26.7212 and 21.3162 and 26.3787 and 35.2187 and 26.4539 and 31.7735
same,C13S - Normalized Luminescence Counts (N=2),[2]; M = -6.522,13.0564 and 10.1636 and 13.437 and 17.4036 and 12.4411 and 15.1722
same,"pEC50 values, Mean",[3]; [6],5.899 and 6.116
same,"ΔpEC50 values (each mutant value - WT average), Mean",[3]; [6],-0.2302 and -0.01318
same,Span ± SEM (Emax normalized to β-PEA),"[3]; C178S, n=2",86.82 ± 7.63
same,pEC50 ± SEM,"[3]; C178S, n=2",6.01 ± 0.05
same,EC50,"[3]; C178S, n=2, read-out: EC50",983 nM
same,"Emax values, Mean","[3]; C178S, β-PEA = 100, each row one experiment (N=2), 3 replicates",79.1908 and 94.4471
same,C178S - Normalized Luminescence Counts (N=2),[3]; M = -5,73.1003 and 72.1657 and 63.8478 and 81.3738 and 108.419 and 79.3694
same,C178S - Normalized Luminescence Counts (N=2),[3]; M = -5.522,52.0253 and 55.0627 and 58.1468 and 73.8647 and 83.1688 and 53.1323
same,C178S - Normalized Luminescence Counts (N=2),[3]; M = -6,32.3989 and 32.726 and 30.2026 and 62.7356 and 57.5001 and 49.3328
same,C178S - Normalized Luminescence Counts (N=2),[3]; M = -6.522,18.0529 and 16.5576 and 18.9875 and 30.7245 and 26.2071 and 22.4375
same,C178S - Normalized Luminescence Counts (N=2),[3]; M = -7,4.642 and 4.221 and 4.735 and 9.753 and 8.496 and 8.018
same,C178S - Normalized Luminescence Counts (N=2),[3]; M = -7.522,0.763 and 0.4359 and 0.01533 and 0.9572 and 2.124 and 0.4486
same,C178S - Normalized Luminescence Counts (N=2),[3]; M = -8,-0.8725 and -0.6389 and -0.8258 and 3.769 and 2.842 and 2.124
same,C178S - Normalized Luminescence Counts (N=2),[3]; M = -8.522,-0.6389 and -1.6202 and -1.667 and 1.376 and 0.02978 and -2.184
same,C178S - Normalized Luminescence Counts (N=2),[3]; M = -9,-0.5921 and -1.854 and -1.48 and 0.05969 and 0.9871 and -1.316
same,C178S - Normalized Luminescence Counts (N=2),[3]; M = -9.522,-1.293 and -1.48 and -0.6389 and -0.03006 and -0.3591 and -0.4489
same,C178S - Normalized Luminescence Counts (N=2),[3]; M = -10,-0.2183 and -0.5454 and -0.966 and -0.5087 and 0.4187 and -1.556
same,C178S - Normalized Luminescence Counts (N=2),[3]; M = -10.522,-0.7791 and -0.8258 and -0.8725 and -0.2993 and -0.5386 and -2.962
same,C178S - Normalized Luminescence Counts (N=2),[3]; M = -11,-1.433 and -0.8258 and -0.4987 and 1.047 and 0.4785 and -0.2993
same,C178S - Normalized Luminescence Counts (N=2),[3]; M = -11.522,-1.293 and -0.6389 and -1.059 and 2.124 and 1.1367 and -0.9276
same,C178S - Normalized Luminescence Counts (N=2),[3]; M = -12,-0.1249 and -0.6856 and 0.06206 and -0.2096 and -0.5386 and -1.227
same,C178S - Normalized Luminescence Counts (N=2),[3]; M = -12.522,-0.7323 and -0.7791 and -0.8725 and 0.2691 and -0.419 and 0.299
same,ΔEmax values (each mutant value - WT average),[4]; W246F mutant (so in the source) minus WT average,-30.8369
same,"Emax values, Mean","[4]; W246F mutant (so in the source), β-PEA = 100, each line an independent experiment, 3 replicates",17.7915
same,Span ± SEM (Emax normalized to β-PEA),"[4]; W264F, n=2",28.7 ± 10.91
same,pEC50 ± SEM,"[4]; W264F, n=2",4.95 ± 0.97
same,EC50,"[4]; W264F, n=2, read-out: EC50",11300 nM
same,Span ± SEM (Emax normalized to β-PEA),"[5]; V184P, n=2",70.26
same,pEC50 ± SEM,"[5]; V184P, n=2",6.27 ± 0.05
same,EC50,"[5]; V184P, n=2, read-out: EC50",539 nM
same,"cAMP accumulation response, single replicate values (source data, Supplementary Figure 5)",[5]; M = -5,47.1774 and 43.1039 and 48.2443 and 102.347 and 62.5054 and 96.189
same,"cAMP accumulation response, single replicate values (source data, Supplementary Figure 5)",[5]; M = -5.522,32.0474 and 39.1275 and 36.5088 and 86.7693 and 72.5115 and 76.5066
same,"cAMP accumulation response, single replicate values (source data, Supplementary Figure 5)",[5]; M = -6,40.0973 and 27.683 and 25.5492 and 73.6844 and 54.6984 and 67.6001
same,"cAMP accumulation response, single replicate values (source data, Supplementary Figure 5)",[5]; M = -6.522,14.9776 and 12.068 and 13.8138 and 37.1052 and 29.2983 and 35.6391
same,"cAMP accumulation response, single replicate values (source data, Supplementary Figure 5)",[5]; M = -7,5.085 and 5.182 and 3.9211 and 15.2237 and 21.0881 and 16.0667
same,"cAMP accumulation response, single replicate values (source data, Supplementary Figure 5)",[5]; M = -7.522,-0.4433 and -1.4132 and 0.1386 and 3.678 and 3.238 and 3.861
same,"cAMP accumulation response, single replicate values (source data, Supplementary Figure 5)",[5]; M = -8,-0.9283 (2×) and -1.51 and 5.3642 and 2.908 and 3.861
same,"cAMP accumulation response, single replicate values (source data, Supplementary Figure 5)",[5]; M = -8.522,-1.316 and -1.607 and -1.51 and 1.809 and 2.2854 and 1.442
same,"cAMP accumulation response, single replicate values (source data, Supplementary Figure 5)",[5]; M = -9,-1.704 (2×) and -1.801 and 1.442 and -0.5735 and 0.4894
same,"cAMP accumulation response, single replicate values (source data, Supplementary Figure 5)",[5]; M = -9.522,-1.4132 and -1.801 and -1.607 and 0.3795 and -0.4269 and 0.5994
same,"cAMP accumulation response, single replicate values (source data, Supplementary Figure 5)",[5]; M = -10,-1.51 and -1.801 (2×) and 1.149 and -0.207 and 0.01294
same,"cAMP accumulation response, single replicate values (source data, Supplementary Figure 5)",[5]; M = -10.522,-1.316 and -1.607 (2×) and -0.2803 and 0.08625 and -1.233
same,"cAMP accumulation response, single replicate values (source data, Supplementary Figure 5)",[5]; M = -11,-1.801 and -1.122 and -1.4132 and 0.746 and 0.7093 and 0.1596
same,"cAMP accumulation response, single replicate values (source data, Supplementary Figure 5)",[5]; M = -11.522,-1.316 and -1.025 and -1.4132 and 0.636 and 1.039 and -0.3169
same,"cAMP accumulation response, single replicate values (source data, Supplementary Figure 5)",[5]; M = -12,-1.801 and -1.122 and -1.219 and -0.4635 and 0.9659 and -0.1337
same,"cAMP accumulation response, single replicate values (source data, Supplementary Figure 5)",[5]; M = -12.522,-1.219 and -0.7343 and -1.607 and 0.0496 and -0.3536 and -0.6468
same,"ΔpEC50 values (each mutant value - WT average), Mean",[5]; hTA1 V184P mutant minus WT average,0.071 and 0.2071
same,"pEC50 values, Mean","[5]; hTA1 V184P mutant, Figure 3B source data, each grid row a separate experiment, 3 replicates",6.2 and 6.336
same,"Emax values, Mean","[5]; hTA1 V184P mutant, β-PEA set to 100, each grid row a separate experiment, 3 replicates",49.3182 and 91.2084
